Reference: PMC5789824, “A presumed homologue of the regulatory subunits of eIF2B functions as ribose-1,5-bisphosphate isomerase in Pyrococcus horikoshii OT3” (Scientific Reports, 2018)
Read-outs that look alike come from different tables or passages of the source.

How the values were obtained:
[1] = tested on: ribose-1,5-bisphosphate isomerase (R15Pi); design: method as in PMID 23065974; conditions: result in words; cited from earlier work
[2] = target: T1, PH0208 protein (PH0208-WT, PH0208-C135S, PH0208-D204N) (Pyrococcus horikoshii, UniProt O57947, M1V); assay: Co-crystallization or soaking with ribonucleotides (crystal structure complexes); type: binding, Pyrococcus horikoshii OT3; conditions: for binding of ribonucleotide seen in crystal structure (electron density): co-crystallization or soaking of PH0208-WT, -C135S, -D204N; for preferred molecule at the 'AMP binding site': crystallized in presence of both AMP (1.5 mM) and GMP (4.5 mM)
T1 construct: an N-terminal α-helical domain (residues 1–122) and a C-terminal α-β-α sandwich domain (residues 123–324); made in house; host or cells: Escherichia coli Rosetta (DE3)
Method: To identify the binding site of ribonucleotides, either co-crystallization or soaking of PH0208-WT, PH0208-C135S and PH0208-D204N proteins with AMP, GMP, CMP and TMP was performed. […] The binding site of AMP lies at the interface of three monomers (chain A, B and D) of the hexameric protein (Fig. 4a). The side chains of Arg124 and Asp290 of chain A undergoes a shift towards AMP to form hydrogen bond with the O2′ and O3′ oxygen atoms of the ribose sugar (Fig. 4b). Another two residues of chain A, Arg229 and Trp231 are involved in interacting with the phosphate groups of the AMP molecule. The side chain atoms of Asn209 and the backbone atoms of Val251 of chain B forms hydrogen bond with the oxygen (O2′ and O3′) atoms of the ribose sugar and the nitrogen (N1 and N6) atom of the adenosine base ring, respectively. Along with chain A and chain B, AMP also binds to a third protomer of the hexameric protein through interactions involving the side chain atoms of Arg190 and Lys194 of chain D (Fig. 4c). Thus, one AMP molecule positions itself to hold three protomers of the hexamer. All the amino acid residues of PH0208 protein forming hydrogen bond with AMP are found to be absolutely conserved in R15Pi enzymes. […] In case of both the mutants, PH0208-C135S and PH0208-D204N, AMP occupies a similar position to that of PH0208-WT protein with the major interactions arising from the three subunits of the hexamer. Similar to PH0208-WT, the adenosine base ring interacts with Val251 of chain B, the oxygen atoms of ribose sugar interacts with Arg124 & Asp290 of chain A and Asn209 of chain B while the phosphate group forms hydrogen bond with Arg229 & Trp231 of chain A and Arg190 & Lys194 of chain D of the mutant proteins (Fig. 4d–f).
To obtain crystals of PH0208-WT, an initial screening was performed by mixing 2 μl of protein and 2 μl of crystallization condition available in Crystal Screen, Crystal Screen 2 and PEG/Ion kits from Hampton research at 277 K and 293 K by the microbatch-under-oil technique. Further refinement of one of the conditions containing 2.0 M NaCl and 10% (w/v) PEG 6000 using hanging-drop vapor-diffusion technique in 24-well plate was performed to obtain better crystals. However, crystals of the apo form of PH0208-WT protein diffracted very poorly. To obtain diffraction quality crystals, the substrate (R15P) was added to the crystallization drop which was then equilibrated against 500 μl of 0.7 M NaCl and 3% PEG 6000. Yet, the crystals formed diffracted to a resolution of ~7 Å, only. […] For co-crystallization of PH0208-WT, PH0208-C135S and PH0208-D204N with different ligands, the final protein concentration was kept at 9.5, 9.0 and 7.0 mg ml^−1, respectively in 20 mM Tris-HCl pH 8.0 and 150 mM KCl. The final concentration of R15P in the crystallization drops were 8.33–9 mM while that of AMP, GMP, CMP and TMP were 1.66, 4.5 & 9, 1.66 and 9 mM, respectively. In case of ligand soaking, the concentration of AMP was kept at 5 mM. For obtaining the crystals of ligand bound PH0208-C135S and PH0208-D204N complexes, the reservoir buffer was further supplemented with 0.1–0.3% of low melting (LM) agarose. All the crystals were obtained in hanging-drop vapor-diffusion method at 20 °C within a period of 2–7 days.

[3] = target: T2, PH0208-D204N mutant protein (Pyrococcus horikoshii, UniProt O57947, D204N); assay: biochemical; type: binding, Pyrococcus horikoshii OT3
T2 construct: an N-terminal α-helical domain (residues 1–122) and a C-terminal α-β-α sandwich domain (residues 123–324); made in house; host or cells: Escherichia coli Rosetta (DE3)
Method: (§1) To determine the binding affinity of the substrate (R15P) and the product (RuBP) to the protein PH0208, isothermal titration calorimetry (ITC) experiments were performed. Since binding of the substrate to the PH0208-WT protein triggers a conformational change along with the formation of the product, the heat change measured during the ITC experiment would reflect the sum of heat generated and absorbed during each event. As a result, the binding affinity (Kd) of PH0208 and R15P/RuBP obtained would be delusional. Therefore, binding affinity was studied using the mutant proteins, PH0208-C135S and PH0208-D204N in which case the heat change would be solely due to ligand binding.
(§2) ITC experiments of mutant proteins (PH0208-C135S, PH0208-C135A and PH0208-D204N) with the substrate (R15P) and the product (RuBP) molecules were measured at 25 °C using MicroCal iTC200. Before ITC experiments, the proteins were dialyzed extensively in buffer (20 mM Tris-HCl pH 8.0 and 150 mM KCl) and the equilibrated buffer was subsequently used to prepare ligand solutions to minimize the heat of dilution effects. Each titration consisted of a preliminary injection of 0.4 μl of 7.5–8.0 mM of R15P and RuBP followed by 24 injections of 1.2 μl (spacing 120 s) into the sample cell filled with protein at a final concentration of 75–80 μM. During titration, the syringe rotated at a speed of 450 rpm to facilitate adequate mixing of the reactants. Data were analyzed using MicroCal ORIGIN software and baselines were subtracted from data to obtain accurate heat exchanges.

[4] = target: T3, PH0208-C135S mutant protein (Pyrococcus horikoshii, UniProt O57947, C135S); assay: biochemical; type: binding, Pyrococcus horikoshii OT3
T3 construct: an N-terminal α-helical domain (residues 1–122) and a C-terminal α-β-α sandwich domain (residues 123–324); made in house; host or cells: Escherichia coli Rosetta (DE3)
Method: as §1, §2

[5] = target: T4, PH0208-C135A mutant protein (Pyrococcus horikoshii, UniProt O57947, C135A); assay: biochemical; type: binding, Pyrococcus horikoshii OT3
T4 construct: an N-terminal α-helical domain (residues 1–122) and a C-terminal α-β-α sandwich domain (residues 123–324); made in house; host or cells: Escherichia coli Rosetta (DE3)
Method: Henceforth, Cys135 was mutated to alanine (PH0208-C135A) to understand its role in ligand (R15P/RuBP) binding.
as §2

T4 sequence (O57947 whole entry C135A, the tested form may be a part): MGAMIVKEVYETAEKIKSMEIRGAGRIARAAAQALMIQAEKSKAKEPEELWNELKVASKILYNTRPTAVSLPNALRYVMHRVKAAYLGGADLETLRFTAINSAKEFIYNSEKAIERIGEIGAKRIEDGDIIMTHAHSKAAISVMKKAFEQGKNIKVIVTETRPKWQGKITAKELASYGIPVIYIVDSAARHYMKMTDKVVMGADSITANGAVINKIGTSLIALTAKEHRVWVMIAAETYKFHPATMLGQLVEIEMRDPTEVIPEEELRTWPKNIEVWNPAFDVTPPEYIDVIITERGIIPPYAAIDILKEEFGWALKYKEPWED
T3 sequence (O57947 whole entry C135S, the tested form may be a part): as the sequence (O57947 whole entry C135A, the tested form may be a part) above, with A135S counted along it
T1 sequence (O57947 whole entry M1V, the tested form may be a part): as the sequence (O57947 whole entry C135A, the tested form may be a part) above, with M1V, A135C counted along it
T2 sequence (O57947 whole entry D204N, the tested form may be a part): as the sequence (O57947 whole entry C135A, the tested form may be a part) above, with A135C, D204N counted along it

Nc1ncnc2c1ncn2[C@@H]1O[C@H](COP(=O)(O)O)[C@@H](O)[C@H]1O [AMP, adenosine 5′-monophosphate]
effect on enzymatic activity / catalytic efficiency of R15Pi [1]: activator of R15Pi
binding of ribonucleotide seen in crystal structure (electron density) [2]: bound to the proteins
preferred molecule at the 'AMP binding site' [2]: AMP outcompete GMP and binds to the ‘AMP binding site’

Nc1ncnc2c1ncn2[C@@H]1O[C@H](COP(=O)(O)OP(=O)(O)OP(=O)(O)O)[C@@H](O)[C@H]1O [ATP, adenosine 5ʹ-triphosphate]
effect on enzymatic activity / catalytic efficiency of R15Pi [1]: inability

Nc1ccn([C@@H]2O[C@H](COP(=O)(O)O)[C@@H](O)[C@H]2O)c(=O)n1 [CMP, cytosine 5′-monophosphate]
effect on enzymatic activity / catalytic efficiency of R15Pi [1]: neither cytosine 5′-monophosphate (CMP) nor thymidine 5′-monophospahte (TMP) possesses the ability to increase the enzymatic activity
binding of ribonucleotide seen in crystal structure (electron density) [2]: no electron density

Nc1nc2c(ncn2[C@@H]2O[C@H](COP(=O)(O)O)[C@@H](O)[C@H]2O)c(=O)[nH]1 [GMP, guanosine 5′-monophosphate]
effect on enzymatic activity / catalytic efficiency of R15Pi [1]: elevates the activity of R15Pi, though to a lesser extent as compared to AMP
binding of ribonucleotide seen in crystal structure (electron density) [2]: bound to the proteins
preferred molecule at the 'AMP binding site' [2]: GMP binds to the ‘GMP binding loop’

O=P(O)(O)OC[C@H]1OC(OP(=O)(O)O)[C@H](O)[C@@H]1O (stereo partly shown) [R15P, ribose-1,5-bisphosphate]
Ka ([3]; ITC, 25 °C): 99100 ± 2630 M⁻¹
T∆S ([3]; ITC, 25 °C): 7.77 kcal/mol
∆G ([3]; ITC, 25 °C): -6.8 kcal/mol
∆H ([3]; ITC, 25 °C): 0.981 ± 0.049 kcal/mol
Kd ([3]; ITC, 25 °C, read-out: Kd): 10 µM
Ka ([4]; ITC, 25 °C): 72000 ± 7130 M⁻¹
T∆S ([4]; ITC, 25 °C): 7.03 kcal/mol
∆G ([4]; ITC, 25 °C): -6.6 kcal/mol
∆H ([4]; ITC, 25 °C): 0.403 ± 0.013 kcal/mol
N ([4]; ITC, 25 °C, single-site model, '(fixed)' = fixed in fit): 1.17 ± 0.03
Kd ([4]; ITC, 25 °C, read-out: Kd): 13.8 µM
interaction with PH0208-C135A (ITC) ([5]; ITC, 25 °C, result in words): did not show any interaction

O=C(COP(=O)(O)O)[C@H](O)[C@H](O)COP(=O)(O)O [RuBP, ribulose-1,5-bisphosphate]
Kd [3]: 7.2 µM
Ka ([3]; ITC, 25 °C): 139000 ± 12000 M⁻¹
T∆S ([3]; ITC, 25 °C): 4.05 kcal/mol
∆G ([3]; ITC, 25 °C): -7.0 kcal/mol
∆H ([3]; ITC, 25 °C): -2.95 ± 0.06 kcal/mol
Kd [4]: 7.5 µM
Ka ([4]; ITC, 25 °C): 133000 ± 72100 M⁻¹
T∆S ([4]; ITC, 25 °C): 2.24 kcal/mol
∆G ([4]; ITC, 25 °C): -6.98 kcal/mol
∆H ([4]; ITC, 25 °C): -4.74 ± 0.39 kcal/mol
Kd [5]: 309 µM
Ka ([5]; ITC, 25 °C): 3.23 × 10^3 ± 299 M^−1
T∆S ([5]; ITC, 25 °C): -4.14 kcal/mol
∆G ([5]; ITC, 25 °C): -4.8 kcal/mol
∆H ([5]; ITC, 25 °C): -8.94 ± 0.40 kcal/mol

Nc1ncnc2c1ncn2[C@@H]1O[C@H](CSCC[C@H](N)C(=O)O)[C@@H](O)[C@H]1O [SAH, S-adenosyl homocysteine]
effect on enzymatic activity / catalytic efficiency of R15Pi [1]: inability

C[S+](CC[C@H](N)C(=O)[O-])C[C@H]1O[C@@H](n2cnc3c(N)ncnc32)[C@H](O)[C@@H]1O (stereo partly shown) [SAM, S-adenosyl methionine]
effect on enzymatic activity / catalytic efficiency of R15Pi [1]: inability

Cc1cn([C@H]2C[C@H](O)[C@@H](COP(=O)(O)O)O2)c(=O)[nH]c1=O [TMP, thymidine 5′-monophospahte]
effect on enzymatic activity / catalytic efficiency of R15Pi [1]: neither cytosine 5′-monophosphate (CMP) nor thymidine 5′-monophospahte (TMP) possesses the ability to increase the enzymatic activity
binding of ribonucleotide seen in crystal structure (electron density) [2]: no electron density
